The results in this text go back to patent US20140012013A1, “METHOD FOR PRODUCING PYRAZOLE CARBOXYLIC ACID DERIVATIVE” (SHIONOGI & CO., LTD., priority 2011, published 2014).

A short description of the data set: log k′ (degree of lipophilic character) from HPLC retention time under gradient condition. In kind it is physicochemical. The settings on record: XTerra MS C18 5 μm, 2.1×100 mm column; acetonitrile/pH6.8 buffer 5:95~95:5/20 min; flow 0.25 mL/min. As for the experimental part: log k′ is a value which means degree of the lipophilic character, and is calculated by the following formula.
tR: retention time of compound under gradient condition t0: retention time of standard material not retained in column
XTerra MS C18 5 μm, 2.1×100 mm column (made by Waters) was used for measurement. The elution was a straight line inclination of acetonitrile/pH6.8 buffer (5:95˜95:5/20 min) at flow velocity 0.25 mL/min.

Regarding `COC(=O)NC12CC3CC(C1)C(NC(=O)c1cnn(/C=C/C(C)(C)NC(C)=O)c1OCC(C)C)C(C3)C2` (centres unmarked) [Compound (XIII-1-2)], the “log k′” value is recorded as 0.886.
To `CC(=O)NCC12CC3CC(C1)C(NC(=O)c1cnn(/C=C/C(C)(C)NC(C)=O)c1OCC(C)C)C(C3)C2` (centres unmarked) [Compound (XIII-1-3)] belongs 0.838.
